Source: PMC3323581, “Membrane Association of the PTEN Tumor Suppressor: Molecular Details of the Protein-Membrane Complex from SPR Binding Studies and Neutron Reflection” (PLoS ONE, 2012)
Read-outs that look alike come from different tables or passages of the source.

Assays:
Test in all cases: SPR equilibrium binding to sparsely-tethered bilayer (stBLM)
wt PTEN [1] = molecular target: T1, wt PTEN (Homo sapiens, UniProt P60484); conditions: for Kd: read-out: Kd (μM) / Component a
T1 construct: full-length, six-histidine tag at the C-terminus, expressed in Escherichia coli BL21 (DE3)
Text: (§1) SPR equilibrium binding to sparsely-tethered bilayer (stBLM) on wt PTEN

wt PTEN [2] = molecular target: T2, wt PTEN (Homo sapiens, UniProt P60484, C124S)
T2 construct: full-length, six-histidine tag at the C-terminus, expressed in Escherichia coli BL21 (DE3)
Text: as §1

truncated PTEN = molecular target: T3, truncated PTEN (Homo sapiens, UniProt P60484, DEL286-309); conditions: DOPC:PI(4,5)P2 97.8:2.2 bilayer, pH 7.0, room temperature
T3 construct: crystallization construct: residues 1-6, loop 286-309 and C-terminal tail 354-403 deleted; plasmid from N. R. Leslie; expressed in E. coli, His-tag purified
Text: SPR equilibrium binding to sparsely-tethered bilayer (stBLM) on truncated PTEN

wt PTEN [3] = molecular target: T4, wt PTEN (Homo sapiens, UniProt P60484, H93R); conditions: DOPC:PI(4,5)P2 97.8:2.2 bilayer, pH 7.0, room temperature
T4 construct: full-length, six-histidine tag at the C-terminus, expressed in Escherichia coli BL21 (DE3)
Text: as §1

CCCCCCCCCCCCCCCC(=O)OC[C@H](COP(=O)(O)O[C@@H]1[C@H](O)[C@H](O)[C@@H](OP(=O)(O)O)[C@H](OP(=O)(O)O)[C@H]1O)OC(=O)CCCCCCCCCCCCCCC [DPPI(4,5)P2]
Kd (wt PTEN [1]): 1.9 ± 0.3 µM

CCCCCCCCCCCCCCCC(=O)OC[C@H](COP(=O)(O)O[C@H]1[C@H](O)[C@@H](OP(=O)(O)O)[C@H](OP(=O)(O)O)[C@@H](OP(=O)(O)O)[C@H]1O)OC(=O)CCCCCCCCCCCCCCC [PI(3,4,5)P3]
Kd (μM) / Component a (wt PTEN [1]; DOPC:PI(3,4,5)P3 97.9:2.1 bilayer, pH 7.0, room temperature, unreliable (active enzyme likely converts the lipid during the measurement)): 2.4 ± 0.2 µM | Kd (wt PTEN [2]): 120 ± 30 nM

PI(4,5)P2
Kd (truncated PTEN): 770 ± 70 nM | Kd (wt PTEN [1]; DOPC:PI(4,5)P2 97.8:2.2 bilayer (same Kd at 0.7 and 3.7 mol%), 100 mM NaCl, 10 mM HEPES, 1 mM EDTA, pH 7.0, room temperature, Kd as protein concentration at half saturation): 0.4 ± 0.1 µM | Kd (wt PTEN [2]; DOPC:PI(4,5)P2 97.8:2.2 bilayer, pH 7.0, room temperature): 320 ± 30 nM | Kd (wt PTEN [3]): 1300 ± 200 nM
